# In patent US8957108B2, “Use of 5,6-dimethylxanthenone-4-acetic acid as an antiviral agent” (University of Maryland, Baltimore, priority 2006, dated 2015):
# Key:
# Influenza/A/Wuhan [1] = test: Assay of direct inhibition of viral infection (influenza, MDCK cells, CPE); assay type: cell-based; settings: CPE of influenza virus on MDCK cells; read-out: IC50 direct antiviral activity
# Procedure: Influenza at 10^3 TCID50 was added in 50 μl volumes to all wells and incubated at room temperature for 1 h. The mixture was inoculated onto MDCK cells on 96-well plates. Tamiflu (1.75 mg/ml) and Relenza (0.5 mg/ml) were used as a positive control for the assay.
# TBK1−/− MEFs = test: Quantitative real-time PCR in mouse embryonic fibroblasts; settings: 2 h
# Influenza/A/Wuhan [2] = test: Assay of indirect inhibition of viral infection (influenza, MDCK cells, CPE); settings: CPE of influenza virus on MDCK cells
# peritoneal macrophages = test: Quantitative real-time PCR of cytokine mRNA in murine peritoneal macrophages
# [3] = IFN-β-deficient cells, DMXAA 3 h vs unstimulated wild-type cells
compound,measurement,setting,value
"Cc1ccc2c(=O)c3cccc(CC(=O)O)c3oc2c1C [DMXAA, 5,6-dimethylxanthenone-4-acetic acid]",IC50,Influenza/A/Wuhan [1],5 µg/mL
same,CYP1A2 Fold Change: IFNβ−/−,IFN-β−/− macrophages,3.9 fold
same,CYP1B1 Fold Change: IFNβ−/−,IFN-β−/− macrophages,5.9 fold
same,2310043N10RIK Fold Change: IFNβ−/−,IFN-β−/− macrophages; [3],2.2 fold
same,5830484A20RIK Fold Change: IFNβ−/−,IFN-β−/− macrophages; [3],4.0 fold
same,ABCB1 Fold Change: IFNβ−/−,IFN-β−/− macrophages; [3],7.1 fold
same,ABL1 Fold Change: IFNβ−/−,IFN-β−/− macrophages; [3],1.5 fold
same,ABLIM1 Fold Change: IFNβ−/−,IFN-β−/− macrophages; [3],1.4 fold
same,ACVR1B Fold Change: IFNβ−/−,IFN-β−/− macrophages; [3],2.3 fold
same,ADRB2 Fold Change: IFNβ−/−,IFN-β−/− macrophages; [3],1.7 fold
same,AFTIPHILIN Fold Change: IFNβ−/−,IFN-β−/− macrophages; [3],1.2 fold
same,AKAP12 Fold Change: IFNβ−/−,IFN-β−/− macrophages; [3],1.5 fold
same,AMPD3 Fold Change: IFNβ−/−,IFN-β−/− macrophages; [3],2.7 fold
same,AP2A2 Fold Change: IFNβ−/−,IFN-β−/− macrophages; [3],8.8 fold
same,APBB1IP Fold Change: IFNβ−/−,IFN-β−/− macrophages; [3],1.8 fold
same,APOBEC3F Fold Change: IFNβ−/−,IFN-β−/− macrophages; [3],1.4 fold
same,ARHGEF3 Fold Change: IFNβ−/−,IFN-β−/− macrophages; [3],2.1 fold
same,ARID3A Fold Change: IFNβ−/−,IFN-β−/− macrophages; [3],2.5 fold
same,ARL4C Fold Change: IFNβ−/−,IFN-β−/− macrophages; [3],5.5 fold
same,ASF1A Fold Change: IFNβ−/−,IFN-β−/− macrophages; [3],2.1 fold
same,ATRX Fold Change: IFNβ−/−,IFN-β−/− macrophages; [3],2.6 fold
same,B3GAT3 Fold Change: IFNβ−/−,IFN-β−/− macrophages; [3],1.6 fold
same,BACE1 Fold Change: IFNβ−/−,IFN-β−/− macrophages; [3],3.7 fold
same,BAMBI Fold Change: IFNβ−/−,IFN-β−/− macrophages; [3],1.5 fold
same,BCL2 Fold Change: IFNβ−/−,IFN-β−/− macrophages; [3],1.4 fold
same,BCL2L1 Fold Change: IFNβ−/−,IFN-β−/− macrophages; [3],2.3 fold
same,BHLHB2 Fold Change: IFNβ−/−,IFN-β−/− macrophages; [3],1.3 fold
same,BID Fold Change: IFNβ−/−,IFN-β−/− macrophages; [3],2.9 fold
same,C8ORF4 Fold Change: IFNβ−/−,IFN-β−/− macrophages; [3],4.1 fold
same,C9ORF26 Fold Change: IFNβ−/−,IFN-β−/− macrophages; [3],4.4 fold
same,CCL2 Fold Change: IFNβ−/−,IFN-β−/− macrophages; [3],5.8 fold
same,CCL3 Fold Change: IFNβ−/−,IFN-β−/− macrophages; [3],1.4 fold
same,CCL4 Fold Change: IFNβ−/−,IFN-β−/− macrophages; [3],8.1 fold
same,CCL5 Fold Change: IFNβ−/−,IFN-β−/− macrophages; [3],3.7 fold
same,CCL7 Fold Change: IFNβ−/−,IFN-β−/− macrophages; [3],2.9 fold
same,CCL13 Fold Change: IFNβ−/−,IFN-β−/− macrophages; [3],5.8 fold
same,CCND2 Fold Change: IFNβ−/−,IFN-β−/− macrophages; [3],2.0 fold
same,CCNE1 Fold Change: IFNβ−/−,IFN-β−/− macrophages; [3],2.9 fold
same,CCNF Fold Change: IFNβ−/−,IFN-β−/− macrophages; [3],2.4 fold
same,CCRN4L Fold Change: IFNβ−/−,IFN-β−/− macrophages; [3],1.6 fold
same,CD37 Fold Change: IFNβ−/−,IFN-β−/− macrophages; [3],1.1 fold
same,CD40 Fold Change: IFNβ−/−,IFN-β−/− macrophages; [3],1.3 fold
same,CD86 Fold Change: IFNβ−/−,IFN-β−/− macrophages; [3],6.0 fold
same,CD274 Fold Change: IFNβ−/−,IFN-β−/− macrophages; [3],1.0 fold
same,CDC6 Fold Change: IFNβ−/−,IFN-β−/− macrophages; [3],3.2 fold
same,CDC7 Fold Change: IFNβ−/−,IFN-β−/− macrophages; [3],1.6 fold
same,CDC37L1 Fold Change: IFNβ−/−,IFN-β−/− macrophages; [3],2.2 fold
same,CDKN1A Fold Change: IFNβ−/−,IFN-β−/− macrophages; [3],1.1 fold
same,CEBPB Fold Change: IFNβ−/−,IFN-β−/− macrophages; [3],1.9 fold
same,CITED2 Fold Change: IFNβ−/−,IFN-β−/− macrophages; [3],1.5 fold
same,CLCA1 Fold Change: IFNβ−/−,IFN-β−/− macrophages; [3],1.9 fold
same,CNR2 Fold Change: IFNβ−/−,IFN-β−/− macrophages; [3],2.3 fold
same,CREBBP Fold Change: IFNβ−/−,IFN-β−/− macrophages; [3],6.3 fold
same,CXCL10 Fold Change: IFNβ−/−,IFN-β−/− macrophages; [3],21.2 fold
same,DAXX Fold Change: IFNβ−/−,IFN-β−/− macrophages; [3],1.6 fold
same,DSCR1 Fold Change: IFNβ−/−,IFN-β−/− macrophages; [3],2.7 fold
same,FGD6 Fold Change: IFNβ−/−,IFN-β−/− macrophages; [3],2.0 fold
same,FGL2 Fold Change: IFNβ−/−,IFN-β−/− macrophages; [3],3.6 fold
same,GBP2 Fold Change: IFNβ−/−,IFN-β−/− macrophages; [3],1.6 fold
same,GBP4 Fold Change: IFNβ−/−,IFN-β−/− macrophages; [3],4.6 fold
same,GBP6 Fold Change: IFNβ−/−,IFN-β−/− macrophages; [3],6.8 fold
same,GYPC Fold Change: IFNβ−/−,IFN-β−/− macrophages; [3],4.4 fold
same,IFI16 Fold Change: IFNβ−/−,IFN-β−/− macrophages; [3],2.7 fold
same,IFI35 Fold Change: IFNβ−/−,IFN-β−/− macrophages; [3],1.1 fold
same,IFI203 Fold Change: IFNβ−/−,IFN-β−/− macrophages; [3],3.4 fold
same,IFI205 Fold Change: IFNβ−/−,IFN-β−/− macrophages; [3],1.8 fold
same,IFIH1 Fold Change: IFNβ−/−,IFN-β−/− macrophages; [3],7.0 fold
same,IFIT1 Fold Change: IFNβ−/−,IFN-β−/− macrophages; [3],22.2 fold
same,IFIT2 Fold Change: IFNβ−/−,IFN-β−/− macrophages; [3],14.3 fold
same,IFIT3 Fold Change: IFNβ−/−,IFN-β−/− macrophages; [3],10.5 fold
same,IFNA5 Fold Change: IFNβ−/−,IFN-β−/− macrophages; [3],2.5 fold
same,IFNA6 Fold Change: IFNβ−/−,IFN-β−/− macrophages; [3],9.1 fold
same,IFNB1 Fold Change: IFNβ−/−,IFN-β−/− macrophages; [3],1.1 fold
same,IFNG Fold Change: IFNβ−/−,IFN-β−/− macrophages; [3],59.4 fold
same,IGTP Fold Change: IFNβ−/−,IFN-β−/− macrophages; [3],1.2 fold
same,IIGP1 Fold Change: IFNβ−/−,IFN-β−/− macrophages; [3],1.2 fold
same,IL6 Fold Change: IFNβ−/−,IFN-β−/− macrophages; [3],13.5 fold
same,IL12B Fold Change: IFNβ−/−,IFN-β−/− macrophages; [3],1.4 fold
same,IL15 Fold Change: IFNβ−/−,IFN-β−/− macrophages; [3],1.7 fold
same,IL15RA Fold Change: IFNβ−/−,IFN-β−/− macrophages; [3],3.3 fold
same,IRF1 Fold Change: IFNβ−/−,IFN-β−/− macrophages; [3],1.2 fold
same,IRF2 Fold Change: IFNβ−/−,IFN-β−/− macrophages; [3],1.2 fold
same,IRGM Fold Change: IFNβ−/−,IFN-β−/− macrophages; [3],2.3 fold
same,ISG20 Fold Change: IFNβ−/−,IFN-β−/− macrophages; [3],3.4 fold
same,KATNA1 Fold Change: IFNβ−/−,IFN-β−/− macrophages; [3],1.5 fold
same,LGP2 Fold Change: IFNβ−/−,IFN-β−/− macrophages; [3],2.7 fold
same,LHX2 Fold Change: IFNβ−/−,IFN-β−/− macrophages; [3],7.8 fold
same,LOC129607 Fold Change: IFNβ−/−,IFN-β−/− macrophages; [3],7.8 fold
same,MAFK Fold Change: IFNβ−/−,IFN-β−/− macrophages; [3],1.6 fold
same,MARCH5 Fold Change: IFNβ−/−,IFN-β−/− macrophages; [3],1.9 fold
same,MOV10 Fold Change: IFNβ−/−,IFN-β−/− macrophages; [3],1.2 fold
same,MX1 Fold Change: IFNβ−/−,IFN-β−/− macrophages; [3],9.3 fold
same,MX2 Fold Change: IFNβ−/−,IFN-β−/− macrophages; [3],1.1 fold
same,NMI Fold Change: IFNβ−/−,IFN-β−/− macrophages; [3],1.6 fold
same,NP Fold Change: IFNβ−/−,IFN-β−/− macrophages; [3],1.7 fold
same,NT5C3 Fold Change: IFNβ−/−,IFN-β−/− macrophages; [3],1.8 fold
same,OAS1B Fold Change: IFNβ−/−,IFN-β−/− macrophages; [3],2.1 fold
same,OASL Fold Change: IFNβ−/−,IFN-β−/− macrophages; [3],19.7 fold
same,P4HA1 Fold Change: IFNβ−/−,IFN-β−/− macrophages; [3],3.4 fold
same,P8 Fold Change: IFNβ−/−,IFN-β−/− macrophages; [3],1.3 fold
same,PARP9 Fold Change: IFNβ−/−,IFN-β−/− macrophages; [3],1.4 fold
same,PELI1 Fold Change: IFNβ−/−,IFN-β−/− macrophages; [3],4.3 fold
same,PGF Fold Change: IFNβ−/−,IFN-β−/− macrophages; [3],20.2 fold
same,PLAU Fold Change: IFNβ−/−,IFN-β−/− macrophages; [3],2.3 fold
same,PPP1R15A Fold Change: IFNβ−/−,IFN-β−/− macrophages; [3],1.6 fold
same,PTX3 Fold Change: IFNβ−/−,IFN-β−/− macrophages; [3],1.3 fold
same,PVRL2 Fold Change: IFNβ−/−,IFN-β−/− macrophages; [3],3.1 fold
same,PVRL4 Fold Change: IFNβ−/−,IFN-β−/− macrophages; [3],4.3 fold
same,REL Fold Change: IFNβ−/−,IFN-β−/− macrophages; [3],1.1 fold
same,RGC32 Fold Change: IFNβ−/−,IFN-β−/− macrophages; [3],3.0 fold
same,RIPK2 Fold Change: IFNβ−/−,IFN-β−/− macrophages; [3],1.3 fold
same,RSAD2 Fold Change: IFNβ−/−,IFN-β−/− macrophages; [3],7.8 fold
same,SAP30 Fold Change: IFNβ−/−,IFN-β−/− macrophages; [3],1.6 fold
same,SAV1 Fold Change: IFNβ−/−,IFN-β−/− macrophages; [3],2.6 fold
same,SDC4 Fold Change: IFNβ−/−,IFN-β−/− macrophages; [3],3.3 fold
same,SECTM1 Fold Change: IFNβ−/−,IFN-β−/− macrophages; [3],1.2 fold
same,SLC7A2 Fold Change: IFNβ−/−,IFN-β−/− macrophages; [3],1.8 fold
same,SOAT1 Fold Change: IFNβ−/−,IFN-β−/− macrophages; [3],1.9 fold
same,SOCS1 Fold Change: IFNβ−/−,IFN-β−/− macrophages; [3],3.4 fold
same,STAT2 Fold Change: IFNβ−/−,IFN-β−/− macrophages; [3],1.7 fold
same,TGTP Fold Change: IFNβ−/−,IFN-β−/− macrophages; [3],1.6 fold
same,TLK2 Fold Change: IFNβ−/−,IFN-β−/− macrophages; [3],1.4 fold
same,TLR3 Fold Change: IFNβ−/−,IFN-β−/− macrophages; [3],1.3 fold
same,TMOD3 Fold Change: IFNβ−/−,IFN-β−/− macrophages; [3],2.3 fold
same,TNF Fold Change: IFNβ−/−,IFN-β−/− macrophages; [3],1.4 fold
same,TNFRSF11B Fold Change: IFNβ−/−,IFN-β−/− macrophages; [3],100.0 fold
same,TNFSF9 Fold Change: IFNβ−/−,IFN-β−/− macrophages; [3],1.7 fold
same,TOR1AIP1 Fold Change: IFNβ−/−,IFN-β−/− macrophages; [3],1.3 fold
same,TPST1 Fold Change: IFNβ−/−,IFN-β−/− macrophages; [3],6.1 fold
same,TREX1 Fold Change: IFNβ−/−,IFN-β−/− macrophages; [3],5.2 fold
same,TRIM21 Fold Change: IFNβ−/−,IFN-β−/− macrophages; [3],2.6 fold
same,TRIM25 Fold Change: IFNβ−/−,IFN-β−/− macrophages; [3],2.3 fold
same,TRIM34 Fold Change: IFNβ−/−,IFN-β−/− macrophages; [3],1.9 fold
same,USP18 Fold Change: IFNβ−/−,IFN-β−/− macrophages; [3],1.0 fold
same,VCAM1 Fold Change: IFNβ−/−,IFN-β−/− macrophages; [3],1.6 fold
same,ZBP1 Fold Change: IFNβ−/−,IFN-β−/− macrophages; [3],4.2 fold
same,ZNF313 Fold Change: IFNβ−/−,IFN-β−/− macrophages; [3],1.5 fold
same,RANTES mRNA in TBK1-deficient MEFs,TBK1−/− MEFs,fail to express
same,TNF-α mRNA in TBK1-deficient MEFs,TBK1−/− MEFs,fail to express
same,IC50 indirect antiviral activity,Influenza/A/Wuhan [2],2.0 µg/mL
same,induced IFN-β mRNA and protein in MyD88−/− macrophages,"peritoneal macrophages; 2 h mRNA, 24 h protein",not significantly altered
same,induced TNF-α mRNA and protein in MyD88−/− macrophages,"peritoneal macrophages; 2 h mRNA, 24 h protein",not significantly altered
same,response to restimulation with either LPS or DMXAA after pretreatment,"peritoneal macrophages; 24 h pretreatment, restimulated 1 h",induces a state of refractoriness
same,TNF-α mRNA in the absence of TLR4,"peritoneal macrophages; TLR4−/− peritoneal macrophages, 2 h",induces TNF-α to wild-type levels
same,induction of IFN-β protein and IP-10 mRNA compared with LPS,peritoneal macrophages; murine macrophages,much more potent inducer
same,IFN-β steady-state mRNA relative to LPS,"peritoneal macrophages; peritoneal exudate macrophages, 2 h, real-time PCR",~10 fold
